test: Binding affinity towards sigma receptor in guinea pig cerebral homogenate using [3H]DTG as radioligand

With `C[C@@H](Cc1ccccc1)N(C)CCCCCc1ccccc1` as the compound, how does the Ki read?
Its Ki is 2.6 nM.

Which Ki does the source give for `C[C@@H](N)Cc1ccccc1` [(R)-amphetamine] here?
The Ki was 46400 nM.

Which Ki does the source give for `C=CCN1CCC2(C)c3cc(O)ccc3CC1C2C` (stereo not drawn) [3-Allyl-8-hydroxy-6,11-dimethyl-1,2,3,4,5,6-hexahydro-2,6-methano-benzo[d]azocinium] here?
The Ki was 429 nM.

Which Ki does the source give for `C[C@H](Cc1ccccc1)NCCOc1ccccc1` here?
Its Ki is 45 nM.

With `C[C@@H](Cc1ccccc1)NCCCCCc1ccccc1` [((S)-1-Methyl-2-phenyl-ethyl)-(5-phenyl-pentyl)-amine] as the compound, how does the Ki read?
The Ki was 6.3 nM.

For `CC(Cc1ccccc1)NCCCCc1ccccc1` (stereo not drawn), which Ki is on record?
The Ki was 9.3 nM.

With `C[C@@H](Cc1ccccc1)NCCCCc1ccccc1` [((S)-1-Methyl-2-phenyl-ethyl)-(4-phenyl-butyl)-amine] as the compound, how does the Ki read?
The Ki was 6.6 nM.

For `C[C@@H](Cc1ccccc1)NCCc1ccccc1` [((S)-1-Methyl-2-phenyl-ethyl)-phenethyl-amine], which Ki is on record?
Its Ki is 31 nM.

For `C[C@H](Cc1ccccc1)NCc1ccccc1` [N-Benzylamphetamine (Bam)], which Ki is on record?
Its Ki is 117 nM.

For `C[C@H](Cc1ccccc1)NCCC(=O)c1ccccc1`, which Ki is on record?
The Ki was 56 nM.

Which Ki does the source give for `CCN[C@H](C)Cc1ccccc1` [Adiparthrol] here?
Its Ki is 660 nM.

test: Binding affinity towards sigma opioid receptor in guinea pig cerebral homogenate using [3H]DTG as radioligand

With `C[C@H](Cc1ccccc1)NCCc1ccccc1` [((R)-1-Methyl-2-phenyl-ethyl)-phenethyl-amine] as the compound, how does the Ki read?
Its Ki is 60 nM.

test: Binding affinity towards sigma opioid receptor was determined in guinea pig cerebral homogenate using [3H]haloperidol as radioligand

With `C[C@H](Cc1ccccc1)NCCc1ccccc1` [((R)-1-Methyl-2-phenyl-ethyl)-phenethyl-amine] as the compound, how does the Ki read?
Its Ki is 61 nM.

Reference: BindingDB's records for doi:10.1021/jm00107a033 (Virginia Commonwealth University, 1991)
